Measured values reported in patent US12448366B2, “Solid forms of pralsetinib” (Rigel Pharmaceuticals, Inc., priority 2020, dated 2025).
Counter-ions that a name gives are not always drawn.

Legend:
Assay type in all cases: physicochemical
[1] = Salt screening: XRPD of wet cake, after drying under vacuum at 50° C., after exposure to 97% relative humidity; details: for stability of salt solid form to humidification: 97% (>95%) relative humidity; for stability of salt solid form to humidification / stability of salt solid form to drying: XRPD; for XRPD Pattern Dry / XRPD Pattern Humid: salt screening; for XRPD Pattern Dry: after drying; for stability of salt solid form to drying: vacuum at 50° C.; for XRPD Pattern Humid: after humidity exposure
Method: Stock solutions of counter-ion were prepared in EtOH, MeOH, or EtOAc, depending on solubility. […] The solvent was allowed to evaporate at room temperature over the weekend and then placed at 50° C. under vacuum for 3 hours to remove any remaining solvent. Approximately 25 volumes solvent (0.6 mL) was added to each vial for screening. The three solvents selected were EtOH, EtOAc, and IPA:water (9:1 vol). […] XRPD analysis was done in three stages. XRPD of the wet cake was done for all samples. Unique solids were then left on XRPD plates and dried under vacuum at 50° C. XRPD of unique dry solids was then done. […] The humid environment was generated by placing a beaker of saturated potassium sulfate in water in a sealed container. All XRPD patterns were compared to counter ion XRPD patterns and known free base patterns. Where solids were not of sufficient quantity to isolate, the solvent was evaporated at room temperature, the material dried at 50° C. under active vacuum for 3 hours, and then reslurried at room temperature in either MtBE or IPAc overnight after heating to 45° C. for 30 minutes.

[2] = One week (7 days) slurry stability by XRPD and HPLC
[3] = Humidity exposure, 75% relative humidity at 40° C. for one week, XRPD

## CO[C@]1(C(=O)N[C@@H](C)c2ccc(-n3cc(F)cn3)nc2)CC[C@H](c2nc(C)cc(Nc3cc(C)[nH]n3)n2)CC1 [Solid Form 6-A, pralsetinib]
[1]; listed as Pattern 6-A
  stability of salt solid form to humidification: became amorphous with one peak

## CS(=O)(=O)O [MSA]
[1]; solvent IPA:water (9:1 vol)
  XRPD Pattern Dry: 2-B + extra

## CO[C@]1(C(=O)N[C@@H](C)c2ccc(-n3cc(F)cn3)nc2)CC[C@H](c2nc(C)cc(Nc3cc(C)[nH]n3)n2)CC1 [gentisate, pralsetinib]
[1]
  stability of salt solid form to humidification: deliquesced

## CO[C@]1(C(=O)N[C@@H](C)c2ccc(-n3cc(F)cn3)nc2)CC[C@H](c2nc(C)cc(Nc3cc(C)[nH]n3)n2)CC1 [Pyruvate, pralsetinib]
[1]
  stability of salt solid form to humidification: changed form

## CO[C@]1(C(=O)N[C@@H](C)c2ccc(-n3cc(F)cn3)nc2)CC[C@H](c2nc(C)cc(Nc3cc(C)[nH]n3)n2)CC1 [sulfates generated from the 1.1 eq. experiments] [pralsetinib]
[1]
  stability of salt solid form to humidification: changed form

## CO[C@]1(C(=O)N[C@@H](C)c2ccc(-n3cc(F)cn3)nc2)CC[C@H](c2nc(C)cc(Nc3cc(C)[nH]n3)n2)CC1 [Solid Form 4-B, pralsetinib]
[1]; listed as Pattern 4-B
  stability of salt solid form to humidification: stable

## CO[C@]1(C(=O)N[C@@H](C)c2ccc(-n3cc(F)cn3)nc2)CC[C@H](c2nc(C)cc(Nc3cc(C)[nH]n3)n2)CC1 [Fumarate, pralsetinib]
[1]
  stability of salt solid form to drying: changed

## CO[C@]1(C(=O)N[C@@H](C)c2ccc(-n3cc(F)cn3)nc2)CC[C@H](c2nc(C)cc(Nc3cc(C)[nH]n3)n2)CC1 [sulfate, pralsetinib]
[1]
  stability of salt solid form to drying: changed

## CO[C@]1(C(=O)N[C@@H](C)c2ccc(-n3cc(F)cn3)nc2)CC[C@H](c2nc(C)cc(Nc3cc(C)[nH]n3)n2)CC1 (single isomer, unassigned) [Pattern 12-G+2 peaks, pralsetinib]
[1]
  stability of salt solid form to humidification: reverted to Pattern 12-G
  stability of salt solid form to drying: converted to Pattern 12-H

## CO[C@]1(C(=O)N[C@@H](C)c2ccc(-n3cc(F)cn3)nc2)CC[C@H](c2nc(C)cc(Nc3cc(C)[nH]n3)n2)CC1 [Solid Form 12-C, pralsetinib]
[1]; listed as Pattern 12-C
  stability of salt solid form to drying: stable

## CO[C@]1(C(=O)N[C@@H](C)c2ccc(-n3cc(F)cn3)nc2)CC[C@H](c2nc(C)cc(Nc3cc(C)[nH]n3)n2)CC1 [saccharine salt, pralsetinib]
[1]
  stability of salt solid form to humidification: changed form

## CO[C@]1(C(=O)N[C@@H](C)c2ccc(-n3cc(F)cn3)nc2)CC[C@H](c2nc(C)cc(Nc3cc(C)[nH]n3)n2)CC1 [Solid Form 12-D, pralsetinib]
[1]; listed as Pattern 12-D
  stability of salt solid form to drying: Pattern 12-E

## CO[C@]1(C(=O)N[C@@H](C)c2ccc(-n3cc(F)cn3)nc2)CC[C@H](c2nc(C)cc(Nc3cc(C)[nH]n3)n2)CC1 [Solid Form 5-B, pralsetinib]
[2]; EtOAc, XRPD and HPLC, listed as Pattern 5-B
  stability slurrying 7 days in EtOAc: stable
[2]; EtOH, XRPD and HPLC, listed as Pattern 5-B
  stability slurrying 7 days in EtOH: stable
[2]; EtOH:water (95:5 vol), XRPD and HPLC, listed as Pattern 5-B
  stability slurrying 7 days in EtOH:water (95:5 vol): stable
[1]; listed as Pattern 5-B
  stability of salt solid form to humidification: stable
  stability of salt solid form to drying: dried to Pattern 5-C
[1]; listed as Form 5-B
  stability of salt solid form to drying: converted to Form 5-C

## CO[C@]1(C(=O)N[C@@H](C)c2ccc(-n3cc(F)cn3)nc2)CC[C@@H](c2nc(C)cc(Nc3cc(C)[nH]n3)n2)CC1.Cl [HCl]
[1]; solvent EtOAc
  XRPD Pattern Dry: 5-C + broad
  XRPD Pattern Humid: 5-C + trace
[1]; solvent IPA:water (9:1 vol)
  XRPD Pattern Humid: 5-C + trace

## CO[C@]1(C(=O)N[C@@H](C)c2ccc(-n3cc(F)cn3)nc2)CC[C@H](c2nc(C)cc(Nc3cc(C)[nH]n3)n2)CC1 [Solid Form 5-A, pralsetinib]
[1]; listed as Form 5-A
  stability of salt solid form to humidification: deliquesced
  stability of salt solid form to drying: stable
[1]; listed as Pattern 5-A
  stability of salt solid form to humidification: deliquesced
  stability of salt solid form to drying: stable
[1]; listed as hydrochloride (5-A)
  stability of salt solid form to humidification: deliquesced

## CO[C@]1(C(=O)N[C@@H](C)c2ccc(-n3cc(F)cn3)nc2)CC[C@H](c2nc(C)cc(Nc3cc(C)[nH]n3)n2)CC1 [Solid Form 12-B, pralsetinib]
[1]; listed as Pattern 12-B
  stability of salt solid form to drying: stable

## CO[C@]1(C(=O)N[C@@H](C)c2ccc(-n3cc(F)cn3)nc2)CC[C@H](c2nc(C)cc(Nc3cc(C)[nH]n3)n2)CC1 [Solid Form 1-B, pralsetinib]
[1]; listed as solid form 1-B
  stability of salt solid form to humidification: converted to Pattern 1-C

## CO[C@]1(C(=O)N[C@@H](C)c2ccc(-n3cc(F)cn3)nc2)CC[C@H](c2nc(C)cc(Nc3cc(C)[nH]n3)n2)CC1 [citrate, pralsetinib]
[1]
  stability of salt solid form to humidification: deliquesced
[1]; listed as Citrate
  stability of salt solid form to humidification: deliquesced

## CO[C@]1(C(=O)N[C@@H](C)c2ccc(-n3cc(F)cn3)nc2)CC[C@H](c2nc(C)cc(Nc3cc(C)[nH]n3)n2)CC1 [Solid Form 9-A, pralsetinib]
[1]; listed as 9-A
  stability of salt solid form to humidification: stable
  stability of salt solid form to drying: stable
[1]; listed as oxalate 9-A
  stability of salt solid form to humidification: stable
  stability of salt solid form to drying: stable

## CO[C@]1(C(=O)N[C@@H](C)c2ccc(-n3cc(F)cn3)nc2)CC[C@H](c2nc(C)cc(Nc3cc(C)[nH]n3)n2)CC1 [hydrochloride, pralsetinib]
[3]; one week / 7 days, XRPD, listed as HCl salt
  stability on exposure to 75% relative humidity at 40° C.: stable
[1]
  stability of salt solid form to humidification: deliquesced

## CO[C@]1(C(=O)N[C@@H](C)c2ccc(-n3cc(F)cn3)nc2)CC[C@H](c2nc(C)cc(Nc3cc(C)[nH]n3)n2)CC1 [Solid Form 1-A, pralsetinib]
[1]; listed as solid form 1-A
  stability of salt solid form to humidification: peak shift

## CO[C@]1(C(=O)N[C@@H](C)c2ccc(-n3cc(F)cn3)nc2)CC[C@H](c2nc(C)cc(Nc3cc(C)[nH]n3)n2)CC1 [Solid Form 5-C, pralsetinib]
[1]; listed as Form 5-C
  stability of salt solid form to humidification: stable

## CO[C@]1(C(=O)N[C@@H](C)c2ccc(-n3cc(F)cn3)nc2)CC[C@H](c2nc(C)cc(Nc3cc(C)[nH]n3)n2)CC1 [Solid Form 8-A, pralsetinib]
[1]; listed as Pattern 8-A
  stability of salt solid form to humidification: stable
  stability of salt solid form to drying: stable
[1]; listed as maleate 8-A
  stability of salt solid form to humidification: stable
  stability of salt solid form to drying: stable

## CO[C@]1(C(=O)N[C@@H](C)c2ccc(-n3cc(F)cn3)nc2)CC[C@H](c2nc(C)cc(Nc3cc(C)[nH]n3)n2)CC1 [Solid Form 10-A+B, pralsetinib]
[1]; listed as 10-A+B
  stability of salt solid form to humidification: stable
  stability of salt solid form to drying: stable

## COC1(C(=O)NC(C)c2ccc(-n3cc(F)cn3)nc2)CCC(c2nc(C)cc(Nc3cc(C)[nH]n3)n2)CC1.Cl (stereo not shown) [HCl 5-B]
[2]
  Stability 7-day slurry: Stable
[3]; XRPD pattern after exposure
  Stability 40° C./75% RH: Stable

## CO[C@]1(C(=O)N[C@@H](C)c2ccc(-n3cc(F)cn3)nc2)CC[C@H](c2nc(C)cc(Nc3cc(C)[nH]n3)n2)CC1 [Solid Form 4-A, pralsetinib]
[1]; listed as Pattern 4-A
  stability of salt solid form to humidification: stable
  stability of salt solid form to drying: Pattern 4-C
